Calls of active or inactive are those of the source. The calls are words filed in the database; no cut-off is given here.
Assays:
HepG2 [1] = assay: Toxicity in human HepG2 cells up to 5 uM incubated in dark for 24 hrs by MTT assay; format: cell-based; conditions: hepg2, 24 h
MCF7 [2] = assay: Photodynamic anticancer activity in human MCF7 cells preincubated for 2 hrs followed by light exposure at 27 J/cm2 for 30 mins and subsequent incubation for 24 hrs by MTT assay; conditions: MCF7, light or radiation study
HepG2 [3] = assay: Photodynamic anticancer activity in human HepG2 cells preincubated for 2 hrs followed by light exposure at 27 J/cm2 for 30 mins and subsequent incubation for 24 hrs by MTT assay; conditions: HepG2, light or radiation study
[4] = Drug uptake in human HepG2 cells at 5 uM after 2 hrs by confocal microscopy; format: ADME, cell-based; conditions: hepg2, 2 h
[5] = Drug uptake in mouse B16F10 cells assessed as localization in mitochondria at 5 uM after 1.5 hrs by MitoTracker Green staining-based fluorescence assay; format: ADME; conditions: b16-f10, 1.5 h
B16-F10 [6] = assay: Toxicity in mouse B16F10 cells up to 5 uM incubated in dark for 24 hrs by MTT assay; format: cell-based; conditions: b16-f10, 24 h
MCF7 [7] = assay: Toxicity in human MCF7 cells up to 5 uM incubated in dark for 24 hrs by MTT assay; format: cell-based; conditions: mcf7, 24 h
B16-F10 [8] = assay: Photodynamic anticancer activity in mouse B16F10 cells preincubated for 2 hrs followed by light exposure at 27 J/cm2 for 30 mins and subsequent incubation for 24 hrs by MTT assay; conditions: B16-F10, light or radiation study
[9] = Drug uptake in mouse B16F10 cells assessed as localization in lysosomes at 5 uM after 1.5 hrs by LysoTracker staining-based fluorescence assay; format: ADME, subcellular, Lysosome; conditions: b16-f10, 1.5 h
[10] = Octanol-water partition coefficient, log P of the compound after 10 mins; format: physicochemical
HepG2 [11] = assay: (§1) In vitro sonodynamic anticancer activity against human HepG2 cells at 25 uM preincubated for 2 hrs followed by exposure to ultrasound at 1.0 MHz and 2 W/cm2 intensity for 3 mins and subsequent incubation for 24 hrs by MTT assay; format: functional, cell-based
HepG2 [12] = assay: Induction of intracellular ROS generation in human HepG2 cells at 1 uM preincubated for 2 hrs followed by exposure to ultrasound at 1.0 MHz and 2 W/cm2 intensity for 3 mins followed by immediate irradiation with light at 27 J/cm2 for 30 mins by DCFH-DA staining-based fluorescence analysis; format: functional, cell-based
HepG2 [13] = assay: Induction of intracellular ROS generation in human HepG2 cells at 1 uM preincubated for 2 hrs followed by light exposure at 27 J/cm2 for 30 mins by DCFH-DA staining-based fluorescence analysis; format: functional, cell-based
HepG2 [14] = assay: as §1, with “sono-photodynamic” for “sonodynamic”, “0.5” for “25”, “mins followed by immediate irradiation with light at 27 J/cm2 for 30 mins” for “mins”; format: functional, cell-based
HepG2 [15] = assay: Induction of intracellular ROS generation in human HepG2 cells at 1 uM preincubated for 2 hrs followed by exposure to ultrasound at 1.0 MHz and 2 W/cm2 intensity for 3 mins by DCFH-DA staining-based fluorescence analysis; format: functional, cell-based

IC50 (MCF7 [2]) [nM]	IC50 (HepG2 [3]) [nM]	Drug uptake [4]	Drug uptake [5]	IC50 (B16-F10 [8]) [nM]	Drug uptake [9]	logP at 10 min [10]	SMILES	Activity (HepG2 [1])	Activity (B16-F10 [6])	Activity (MCF7 [7])	Activity (HepG2 [11])	Activity (HepG2 [12])	Activity (HepG2 [13])	Activity (HepG2 [14])	Activity (HepG2 [15])
> 5000	> 5000	Active	Active	> 5000	Active	-0.56	O=C([O-])c1c(Cl)c(Cl)c(Cl)c(Cl)c1-c1c2cc(I)c(=O)c(I)c-2oc2c(I)c([O-])c(I)cc12.[Na+].[Na+] [ROSE BENGAL SODIUM]	Non-Toxic	Non-Toxic	Non-Toxic	–	–	–	–	–
1260	670	Active	Active	1230	Active	0.8	COCCOCCOCCOCCOC(=O)CCCCCCCOC(=O)c1c(Cl)c(Cl)c(Cl)c(Cl)c1-c1c2cc(I)c(=O)c(I)c-2oc2c(I)c(O)c(I)cc12	Non-Toxic	Non-Toxic	Non-Toxic	Active	–	–	–	–
1260	880	Active	Active	1440	Active	0.94	O=C(CCCCCCCOC(=O)c1c(Cl)c(Cl)c(Cl)c(Cl)c1-c1c2cc(I)c(=O)c(I)c-2oc2c(I)c(O)c(I)cc12)Nc1cccc2ccccc12	Non-Toxic	Non-Toxic	Non-Toxic	inactive	–	–	–	–
850	610	Active	Active	1190	Active	1.21	O=C(CCCCCCCOC(=O)c1c(Cl)c(Cl)c(Cl)c(Cl)c1-c1c2cc(I)c(=O)c(I)c-2oc2c(I)c(O)c(I)cc12)Nc1cccc2cccnc12	Non-Toxic	Non-Toxic	Non-Toxic	inactive	–	–	–	–
460	280	Active	Active	780	Active	0.92	COCCOCCOC(=O)CCCCCCCOC(=O)c1c(Cl)c(Cl)c(Cl)c(Cl)c1-c1c2cc(I)c(=O)c(I)c-2oc2c(I)c(O)c(I)cc12	Non-Toxic	Non-Toxic	Non-Toxic	Active	Active	Active	Active	inactive
2880	2150	Active	Active	2170	Active	0.91	O=C(O)CCCCCCCOC(=O)c1c(Cl)c(Cl)c(Cl)c(Cl)c1-c1c2cc(I)c(=O)c(I)c-2oc2c(I)c(O)c(I)cc12	Non-Toxic	Non-Toxic	Non-Toxic	–	–	–	–	–
